In ChEMBL document CHEMBL1128363, “Design, synthesis, biology, and conformations of bicyclic alpha-melanotropin analogues” (J Med Chem, 1995):
pEC50: −log10 of the molar value. Activity calls are given as the source filed them. No cut-off for these calls is given here. Where a SMILES comes first, the peptide text is derived from it. [ ]: non-standard residue; d: D form.

Columns and labels:
Assay type in all cases: functional
[1] = system: lizard; test: Potency measured in lizard where (+) indicates peptide is long acting and (-) indicates peptide is not long acting.
[2] = system: frog; test: Potency measured in frog where (-) indicates peptide is not long acting.
[3] = Activity expressed as EC50 was measured in frog.
[4] = Activity expressed as EC50 was measured in lizard.
[5] = system: lizard; test: Potency of compound was measured in lizard; Inactive
[6] = system: lizard; test: Potency of compound was measured in lizard where (-) indicates peptide is not prolonged acting.
[7] = Activity of compound expressed as EC50 was measured in frog; Inactive
[8] = Activity of compound expressed as EC50 was measured in lizard; Inactive
[9] = system: frog; test: Potency of compound was measured in frog; Inactive
[10] = system: frog; test: Potency of compound was measured in frog
[11] = system: frog; test: Potency measured in frog where (+) indicates peptide is long acting.
[12] = system: lizard; test: Potency of compound was measured in lizard where (+) indicates peptide is prolonged acting.
[13] = system: frog; test: Potency of compound was measured in frog where (+) indicates peptide is prolonged acting and (-) indicates peptide is not prolonged acting.

CC(=O)N[C@@H]1CSSC[C@H]2NC(=O)[C@@H](Cc3c[nH]c4ccccc34)NC(=O)[C@H](CCCN=C(N)N)NC(=O)[C@H](Cc3ccccc3)NC(=O)[C@H](Cc3c[nH]cn3)NC(=O)[C@@H](CCC(=O)NCCCC[C@@H](C(N)=O)NC2=O)NC1=O
Potency [1]: 0.0025 | Potency [2]: 0.0035 | pEC50 [3]: 7.55 | pEC50 [4]: 6.40

CCCC[C@H](NC(C)=O)C(=O)NC1CCCNC(=O)CC[C@H](C(=O)N[C@@H](Cc2c[nH]c3ccccc23)C(=O)NCC(=O)N[C@@H](CCCCN)C(N)=O)NC(=O)[C@@H](Cc2ccccc2)NC(=O)[C@@H](Cc2c[nH]cn2)NC1=O (stereo in doubt)
Potency [2]: 0.001 | pEC50 [3]: 6.00 | Potency [5]: inactive

CC(=O)N[C@@H]1CSSC[C@H](C(=O)N[C@H](CCCCN)C(N)=O)NC(=O)[C@@H](Cc2c[nH]c3ccccc23)NC(=O)[C@H](CCCN=C(N)N)NC(=O)C(Cc2ccccc2)NC(=O)[C@H](Cc2c[nH]cn2)NC(=O)[C@@H](CCC(=O)O)NC1=O (stereo in doubt)
Potency [2]: 2.5 | pEC50 [3]: 10.40 | pEC50 [4]: 9.52 | Potency [6]: 3

CC(=O)N[C@@H](Cc1c[nH]cn1)C(=O)N[C@H](Cc1ccccc1)C(=O)N[C@@H](CCCN=C(N)N)C(N)=O
Potency [5]: inactive | EC50 [7]: Not Active | EC50 [8]: Not Active | Potency [9]: inactive

CCCC[C@H](NC(C)=O)C(=O)N[C@@H]1CC(=O)NCCCC[C@H](C(N)=O)NC(=O)C(C)(C)NC(=O)[C@@H](Cc2c[nH]c3ccccc23)NC(=O)[C@H](CCCN=C(N)N)NC(=O)[C@@H](Cc2ccccc2)NC(=O)[C@@H](Cc2c[nH]cn2)NC1=O
pEC50 [3]: 10.00 | Potency [10]: 1

N=C(N)NCCC[C@H]1NC(=O)[C@@H](Cc2ccccc2)NC(=O)[C@@H](Cc2c[nH]cn2)NC(=O)CNC(=O)CNC(=O)[C@H](Cc2c[nH]c3ccccc23)NC1=O
pEC50 [3]: 5.92

CC(=O)N[C@@H](Cc1c[nH]cn1)C(=O)N[C@@H](Cc1ccccc1)C(=O)N[C@@H](CCCN=C(N)N)C(=O)N[C@@H](Cc1c[nH]c2ccccc12)C(N)=O
Potency [2]: 5e-06 | pEC50 [3]: 4.52 | pEC50 [4]: 4.82 | Potency [6]: 0.0014

CC(=O)N[C@H](Cc1ccccc1)C(=O)N[C@@H](CCCN=C(N)N)C(=O)N[C@@H](Cc1c[nH]c2ccccc12)C(N)=O (Ac-[dF]-Arg-Trp-NH2)
pEC50 [3]: 5.00 | Potency [11]: 1e-05 | Potency [12]: 0.001 | pEC50 [4]: 6.00

CC(=O)N[C@@H]1CSSC[C@H]2NC(=O)[C@@H](Cc3c[nH]c4ccccc34)NC(=O)[C@H](CCCN=C(N)N)NC(=O)[C@H](Cc3ccccc3)NC(=O)[C@H](Cc3c[nH]cn3)NC(=O)[C@@H](CC(=O)NCCCC[C@@H](C(N)=O)NC2=O)NC1=O
Potency [1]: 0.03 | pEC50 [3]: 8.22 | pEC50 [4]: 7.48 | Potency [13]: 0.018

CC(=O)N[C@@H](Cc1cnc[nH]1)C(=O)N[C@H](Cc1ccccc1)C(=O)N[C@@H](CCCNC(=N)N)C(=O)N[C@@H](Cc1c[nH]c2ccccc12)C(N)=O
Potency [2]: 0.001 | pEC50 [3]: 6.82 | pEC50 [4]: 8.00 | Potency [6]: 0.1

CC(=O)N[C@@H]1CSSC[C@@H](C(N)=O)NC(=O)[C@@H]2CCCCNC(=O)C[C@@H](NC1=O)C(=O)N[C@@H](Cc1c[nH]cn1)C(=O)N[C@H](Cc1ccccc1)C(=O)N[C@@H](CCCN=C(N)N)C(=O)N[C@H](Cc1c[nH]c3ccccc13)C(=O)N2
Potency [1]: 0.03 | pEC50 [3]: 7.48 | Potency [11]: 0.003 | pEC50 [4]: 7.48

CC(=O)N[C@@H]1CSSC[C@H]2NC(=O)[C@@H](Cc3c[nH]c4ccccc34)NC(=O)[C@H](CCCN=C(N)N)NC(=O)C(Cc3ccccc3)NC(=O)[C@H](Cc3c[nH]cn3)NC(=O)[C@@H](CC(=O)NCCCC[C@H](C(=O)N3CCC[C@@H]3C(=O)N[C@H](C(N)=O)C(C)C)NC2=O)NC1=O (stereo in doubt)
Potency [1]: 0.03 | pEC50 [3]: 8.60 | Potency [11]: 0.04 | pEC50 [4]: 7.48
